What was measured:
rat corpora cavernosa = assay: Pharmacodynamic test: intracavernous pressure on electric stimulation of the cavernous nerve; format: in vivo; settings: anesthetized male SD rats, 5 mg/kg orally, ratio of ICP to MBp
Protocol: The test was carried out based on the methods reported (International Journal of Impotence Research 2002, 14, 251 and The Journal of Urology 1992, 147, 1124). After fasted for 12 hours, 4 male SD rats were randomized into each group. After anesthetizing the rats with sodium pentobarbital (50 mg/kg, i.p.), the penile skin was incised and the prepuce was degloved to expose completely the corpora cavernosa (CC). A needle linked to an electrophysiology instrument was inserted into the CC on the right side in order to measure the intracavernous pressure (ICP). The right carotid artery was cannulated in a similar manner to the polyethylene tube in order to monitor the mean blood pressure (MBp) continuously. […] Electric stimulation was performed at 2 Hz, for 60 s with a pulse duration of 5 ms and 3V using a stimulator. The compounds were administrated orally (5 mg/kg). The change of the ICP and MBp were monitored continuously before and after the administration. The effect of the compounds on the erection induced by electric stimulation was evaluated by the ratio of ICP to MBp. The parameter (ICP/MBp) was used to estimate the influence of the compounds to the rat corpora cavernosa. […] The statistical significance of the differences between groups was calculated using Duncan's multiple comparison.

[1] = biological target: T1, PDE5 from human platelets (Homo sapiens, UniProt O76074); assay: PDE5 inhibitory activity test (scintillation proximity assay); format: biochemical
T1 construct: from tissue; host or cells: human platelets

PDE6 from bovine retina = biological target: T2, PDE6 from bovine retina (Bos taurus, UniProt P11541+P23439); assay: PDE6 inhibitory activity test (scintillation proximity assay); format: biochemical; settings: for IC50: PDE6 from bovine retina; for PDE6 IC50/PDE5 IC50: selectivity of PDE5 versus PDE6
T2 construct: the PDE6 was isolated form bovine retinas; from tissue; host or cells: bovine retina
T2 sequence (P11541 2-856 limits assumed): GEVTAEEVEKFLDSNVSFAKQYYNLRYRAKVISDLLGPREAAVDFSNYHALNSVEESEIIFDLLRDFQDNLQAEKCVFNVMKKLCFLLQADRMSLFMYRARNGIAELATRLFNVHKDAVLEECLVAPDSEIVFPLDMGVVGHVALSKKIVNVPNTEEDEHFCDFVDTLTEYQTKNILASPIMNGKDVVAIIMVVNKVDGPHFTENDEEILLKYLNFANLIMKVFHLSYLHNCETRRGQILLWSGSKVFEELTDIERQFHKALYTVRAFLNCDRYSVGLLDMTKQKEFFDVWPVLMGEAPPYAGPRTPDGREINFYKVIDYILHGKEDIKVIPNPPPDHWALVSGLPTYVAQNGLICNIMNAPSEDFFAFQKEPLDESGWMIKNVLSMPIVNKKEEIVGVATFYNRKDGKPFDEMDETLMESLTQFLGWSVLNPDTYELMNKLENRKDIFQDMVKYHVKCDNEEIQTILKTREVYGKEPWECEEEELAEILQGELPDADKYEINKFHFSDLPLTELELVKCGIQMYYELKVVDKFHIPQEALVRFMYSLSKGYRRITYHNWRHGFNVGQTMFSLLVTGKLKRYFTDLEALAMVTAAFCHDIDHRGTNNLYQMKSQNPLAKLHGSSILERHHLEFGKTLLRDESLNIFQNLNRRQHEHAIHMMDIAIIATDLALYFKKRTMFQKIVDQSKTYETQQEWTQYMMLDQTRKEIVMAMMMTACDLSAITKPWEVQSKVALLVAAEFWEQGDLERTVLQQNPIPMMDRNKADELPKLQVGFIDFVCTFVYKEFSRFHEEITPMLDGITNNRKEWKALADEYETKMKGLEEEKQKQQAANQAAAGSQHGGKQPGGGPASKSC
T2 sequence (P23439 2-850 limits assumed): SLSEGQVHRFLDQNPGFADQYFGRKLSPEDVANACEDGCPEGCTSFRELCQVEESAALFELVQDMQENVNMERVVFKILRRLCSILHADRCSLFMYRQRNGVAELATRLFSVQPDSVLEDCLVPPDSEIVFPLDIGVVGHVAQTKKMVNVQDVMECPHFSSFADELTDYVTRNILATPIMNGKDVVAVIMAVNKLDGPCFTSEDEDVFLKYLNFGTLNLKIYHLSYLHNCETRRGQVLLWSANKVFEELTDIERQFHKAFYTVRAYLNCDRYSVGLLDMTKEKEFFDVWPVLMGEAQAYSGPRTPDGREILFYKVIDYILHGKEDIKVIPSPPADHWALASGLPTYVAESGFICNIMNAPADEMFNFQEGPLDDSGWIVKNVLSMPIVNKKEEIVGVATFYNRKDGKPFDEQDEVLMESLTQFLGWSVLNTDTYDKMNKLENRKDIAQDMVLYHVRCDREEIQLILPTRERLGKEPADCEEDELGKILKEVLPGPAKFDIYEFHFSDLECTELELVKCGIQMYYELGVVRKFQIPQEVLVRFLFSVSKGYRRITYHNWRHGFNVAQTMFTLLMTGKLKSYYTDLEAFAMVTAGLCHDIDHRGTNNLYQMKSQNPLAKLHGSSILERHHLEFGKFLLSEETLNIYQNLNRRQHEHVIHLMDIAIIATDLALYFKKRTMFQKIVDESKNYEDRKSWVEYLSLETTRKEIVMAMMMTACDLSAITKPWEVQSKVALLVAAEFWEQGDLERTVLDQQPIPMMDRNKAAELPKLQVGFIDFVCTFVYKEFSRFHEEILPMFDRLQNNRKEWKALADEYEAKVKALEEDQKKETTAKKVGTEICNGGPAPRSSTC
Source text: (§1) The PDE5 and PDE3 were isolated form human platelets, while the PDE6 was isolated form bovine retinas. The enzyme inhibitory activity test conducted immediately after the enzymes had been isolated, using a scintillation proximity assay for the direct detection of AMP/GMP by the TRKQ7100 and TRKQ7090 kit. In summary, the effect of PDE inhibitors was investigated by assaying a fixed amount of enzyme in the presence of varying inhibitor concentrations and low substrate. The final assay volume was made up to 100 μl with 10 μl assay buffer (50 mM Tris/HCl PH 7.5, 8.3 mM MgCl2, 1.7 mM EGTA), and water. Reactions were initiated with enzyme, incubate for 30 minutes at 30° C. and terminated with 50 μl yttrium silicate SPA beads suspension containing zinc sulphate. Shook for 20 minutes and settled for 30 minutes in the dark, then counted on a BECKMAN LS6500 MULTI-PURPOSE SCINTILLATION COUNTER. The IC50 value for the compounds according the present invention was calculated according the counts.

PDE3 = biological target: T3, PDE3 (Homo sapiens, UniProt Q14432); assay: PDE3 inhibitory activity test (scintillation proximity assay); format: biochemical; settings: PDE3 isolated from human platelets
T3 construct: from tissue; host or cells: human platelets
T3 sequence (Q14432 whole entry): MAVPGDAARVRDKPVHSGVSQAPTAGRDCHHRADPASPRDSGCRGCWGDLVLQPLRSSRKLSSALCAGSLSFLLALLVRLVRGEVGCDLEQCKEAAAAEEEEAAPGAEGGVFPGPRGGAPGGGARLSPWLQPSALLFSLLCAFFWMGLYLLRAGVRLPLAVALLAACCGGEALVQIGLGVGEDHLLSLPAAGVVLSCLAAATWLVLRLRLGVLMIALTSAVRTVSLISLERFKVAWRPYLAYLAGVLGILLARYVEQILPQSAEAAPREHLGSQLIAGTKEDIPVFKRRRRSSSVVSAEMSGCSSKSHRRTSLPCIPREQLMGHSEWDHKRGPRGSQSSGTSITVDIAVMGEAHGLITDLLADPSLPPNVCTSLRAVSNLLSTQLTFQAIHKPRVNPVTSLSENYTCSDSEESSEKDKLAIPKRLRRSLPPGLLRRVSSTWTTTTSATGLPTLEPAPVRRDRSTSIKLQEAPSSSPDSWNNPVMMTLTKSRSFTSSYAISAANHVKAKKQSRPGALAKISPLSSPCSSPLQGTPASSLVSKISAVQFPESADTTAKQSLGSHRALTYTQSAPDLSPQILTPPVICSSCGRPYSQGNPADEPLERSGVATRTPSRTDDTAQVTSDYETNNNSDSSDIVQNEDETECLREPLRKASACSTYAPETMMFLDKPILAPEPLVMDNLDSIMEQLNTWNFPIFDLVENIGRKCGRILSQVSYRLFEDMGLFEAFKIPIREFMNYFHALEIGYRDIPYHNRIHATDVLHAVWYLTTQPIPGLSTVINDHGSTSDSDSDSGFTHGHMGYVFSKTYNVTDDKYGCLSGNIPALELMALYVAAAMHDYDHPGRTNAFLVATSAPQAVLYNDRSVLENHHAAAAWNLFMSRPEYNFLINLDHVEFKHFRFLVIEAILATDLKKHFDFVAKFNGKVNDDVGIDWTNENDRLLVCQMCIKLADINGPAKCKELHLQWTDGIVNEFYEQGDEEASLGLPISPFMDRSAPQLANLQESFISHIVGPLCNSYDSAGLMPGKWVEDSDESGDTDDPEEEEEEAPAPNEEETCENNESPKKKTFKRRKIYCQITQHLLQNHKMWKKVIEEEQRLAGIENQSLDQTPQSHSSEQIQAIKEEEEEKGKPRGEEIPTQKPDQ
Source text: as §1
PDE3 is a PDE isozyme distributed mainly in heart, so the inhibiting of PDE3 may lead to side effects associated with heart. Accordingly, the inhibitory activities of some example compounds according to the invention against PDE3 were determined.

male KM mouse = assay: Acute oral toxicity test; format: in vivo; settings: single oral dose of 3 g/kg, 10 or 11 mice per group
Protocol: In this test male KM mouse weighting 18-22 g were used, and 10 or 11 mouse were assigned randomly to each group. […] The animals were fasted for 12 hours before the administration.

[2] = PDE5 in the PDE6 selectivity table

Compound | ICP/BP (rat corpora cavernosa) | IC50 ([1]; PDE5 from human platelets) | IC50 [1, 2] | IC50 (PDE6 from bovine retina) | PDE6 IC50/PDE5 IC50 (PDE6 from bovine retina) | IC50 (PDE3) | Number of death (male KM mouse) | mortality rate (male KM mouse)
CCCOc1ccc(S(=O)(=O)N(CCCO)CCCOC(C)=O)cc1-c1nc2c(CCC)nn(C)c2c(=O)[nH]1 [Example 92, 1-methyl-5-{2-propoxy-5-[[1-(3-acetoxypropyl)-1-(3-hydroxypropyl)]amidosulfonyl]phenyl}-3-n-propyl-1,6-dihydro-7H-pyrazolol[4,3-d]pyrimidin-7-one] | 86.4 ± 4.8 | 3.85 nM | 3.85 nM | 254 nM | 66.0 | 10.5 µM | 0 | 0%
CCCOc1ccc(S(=O)(=O)N(CCOC(C)=O)CCN2CCOCC2)cc1-c1nc2c(CCC)nn(C)c2c(=O)[nH]1 [Example 96, 1-methyl-5-{2-propoxy-5-[[1-(2-acetoxyethyl)-1-(2-morpholin-1-yl)ethyl]amidosulfonyl]phenyl}-3-n-propyl-1,6-dihydro-7H-pyrazolo[4,3-d]pyrimidin-7-one] | 81.0 ± 9.5 | 4.24 nM | 4.24 nM | 244 nM | 57.7 | 12.4 µM | 0 | 0%
CCCOc1ccc(S(=O)(=O)N(CCCOC)CCCOC(C)=O)cc1-c1nc2c(CCC)nn(C)c2c(=O)[nH]1 [Example 118, 1-methyl-5-{2-propoxy-5-[[1-(3-methoxypropyl)-1-(3-acetoxypropyl)]amidosulfonyl]phenyl}-3-n-propyl-1,6-dihydro-7H-pyrazolo[4,3-d]pyrimidin-7-one] | 77.9 ± 2.3 | 5.41 nM | 5.41 nM | 203 nM | 37.6 | 20.5 µM | 0 | 0%

Source: patent publication US20080318949A1, “Pyrazolopyrimidinone Derivatives, Their Preparation And Their Use” (Topharman Shanghai Co., Ltd, priority 2005, published 2008)
